Records with an inconclusive call do not appear. The source made the active and inactive calls. No rule for the calls is given here. Where only a bound is given, the exact number is not on record here.

The nature of assay [1]: dynein cargo transport inhibitors, potency, dose response, imaging, high-content imaging (AID 463136).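 Also: mouse mammary adenocarcinoma 3617.4 cells expressing GFP-tagged rat glucocorticoid receptor.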 The conditions noted are these: HCS imaging, dynein-mediated cargo transport inhibition; inhibition at max concentration; at 50 µM; stronger effect = higher value.
The subject of assay [2] is HCS imaging, dynein-mediated cargo transport inhibition. The description is as above.

In general, inhibition refers to the change of the read-out against control, counted positive when it falls. Usually IC50 stands for the concentration that inhibits the measured activity by half. On to `O=C(/C=C/c1ccncc1)c1ccc2c(c1)OCCO2`, for which the inhibition in assay [1] came to 72.4%. In addition, the IC50 in assay [2] was 17.1 µM.

In the case of `Cc1ccccc1NC(=O)C(Cl)=C(Cl)Cl`, the inhibition in assay [1] amounted to 77.1%. For the same compound, in assay [2], the half-maximal inhibitory concentration (IC50) is 13.4 µM.

Consider `Nc1cccc2c1C(=O)N(C(=O)/C=C/c1ccc(F)cc1)C2=O`, for which, in assay [1], the inhibition was 37.6%. In addition, in assay [2], the IC50 was > 50 µM (inactive).

`C=CCn1c(Sc2ncc([N+](=O)[O-])s2)n[nH]c1=O`: in assay [1], the inhibition turned out to be 62.3%. Besides, the IC50 in assay [2] was 20 µM.

Consider `Clc1ccc(-c2csc3ncnc(Cl)c23)cc1`, for which the inhibition in assay [1] turned out to be 72.9%. For the same compound, in assay [2], the IC50 was 40.5 µM.

With `Cc1ccc(/C=C2\CCC3=C2OC(N)=C(C#N)C3c2ccc(C)cc2)cc1` (stereo unspecified), the inhibition in assay [1] was determined as 111%. Also, the 50% inhibitory concentration (IC50) in assay [2] was 3.23 µM.

On to `CC(=O)Nc1sc(/C(C#N)=C/c2ccc(Cl)c(Cl)c2)nc1-c1ccc(C)cc1`, for which the inhibition in assay [1] worked out at 102%. The half-maximal inhibitory concentration (IC50) in assay [2] is 0.491 µM.

Take `COC(CN(C(=O)CCl)C(C(=O)NC1CCCCC1)c1ccc(Cl)cc1)OC` (stereo unspecified): in assay [1], the inhibition is 82.6%. The IC50 in assay [2] is 22.6 µM.

For `Cc1cc(C)c(C)c(S(=O)(=O)ON2C(=O)c3ccccc3C2=O)c1C`, in assay [1], the inhibition is -3.7%. The IC50 in assay [2] is > 50 µM (inactive).

Take `O=C1c2ccccc2-c2onc3ccc(NCc4ccco4)c1c23`: the inhibition in assay [1] amounted to 87.2%. The IC50 in assay [2] is 41.4 µM.

On to `COc1ccc(-n2ncc(Cl)c(Cl)c2=O)cc1`, for which the inhibition in assay [1] came out at 84.7%. The IC50 in assay [2] was 21.6 µM.

For `C=CCN1C(=O)NC(=O)/C(=C/C=C/c2ccccc2)C1=O`, the inhibition in assay [1] is -33.3%. Also, the IC50 in assay [2] was > 50 µM (inactive).

On to `CCc1ccccc1NC(=O)CN(C)C(=O)Cn1ncc(Cl)c(Cl)c1=O`, for which the inhibition in assay [1] amounted to 81.8%. Also, the IC50 in assay [2] is 7.32 µM.

Take `CC(C)CC(=O)/C=C/n1c(=S)oc2ccccc21`: the inhibition in assay [1] was 24.5%. Further, in assay [2], the IC50 was > 50 µM (inactive).

In the case of `CCn1c(=O)c([N+](=O)[O-])c(Cl)c2ccccc21`, the inhibition in assay [1] was found to be 83.9%. Further, in assay [2], the IC50 is 30.3 µM.

For the compound `O=C1/C(=C\c2cccnc2)CN(Cc2ccccc2)C/C1=C\c1cccnc1`, the inhibition in assay [1] came to 83.3%. Further, the IC50 in assay [2] was 15.5 µM.

With `COc1cc(NC(=O)Cn2ncc(Cl)c(Cl)c2=O)c(C)cc1[N+](=O)[O-]`, the inhibition in assay [1] turned out to be 64.6%. Further, the IC50 in assay [2] is 7.75 µM.

As for `CC(C)c1ccc(CN2CCN(C(=O)CCl)CC2)cc1`, the inhibition in assay [1] was 89.6%. Moreover, the 50% inhibitory concentration (IC50) in assay [2] is 7.94 µM.

Consider `Cc1ccc2nc(/C(C#N)=C\c3ccc(N4CCOCC4)o3)[nH]c2c1`, for which, in assay [1], the inhibition is 80.2%. Further, in assay [2], the IC50 is 13.1 µM.

On to `O=c1c(Cl)cc(Cl)nn1-c1ccccc1`, for which the inhibition in assay [1] stood at 72.4%. For the same compound, in assay [2], the IC50 was 10.5 µM.

Consider `O=[N+]([O-])c1ccc(-c2ccc(/C=N/Nc3nc(N4CCCCC4)nc(N4CCCCC4)n3)o2)cc1`, for which, in assay [1], the inhibition was 22.5%. Further, in assay [2], the IC50 was > 50 µM (inactive).

On to `O=C1C=CC(=O)N1CCNc1ncc(C(F)(F)F)cc1Cl`, for which the inhibition in assay [1] came out at 21.2%. The IC50 in assay [2] was > 50 µM (inactive).

`Cc1nc([N+](=O)[O-])c(Br)n1CC(=O)c1ccc(F)cc1`: the inhibition in assay [1] was found to be 92.2%. In assay [2], the IC50 is 3.25 µM.

Turning to `COc1cccc(/C=C/C(=O)c2cccc([N+](=O)[O-])c2)c1OC`, the inhibition in assay [1] was 27.1%. Also, the IC50 in assay [2] was > 50 µM (inactive).

With `CCN1C/C(=C/c2ccc(N3CCOCC3)cc2)C(=O)/C(=C/c2ccc(N3CCOCC3)cc2)C1`, the inhibition in assay [1] is 108%. For the same compound, the IC50 in assay [2] is 25 µM.

Turning to `COc1cccc(N(C(=O)CCl)C(C(=O)NCCc2ccccc2)c2cccs2)c1` (stereo unspecified), the inhibition in assay [1] stood at 85.4%. The IC50 in assay [2] is 27.1 µM.

As for `CCCn1nc(-c2ccccc2)c2nc3ccccc3nc21`, the inhibition in assay [1] was -0.033%. For the same compound, the IC50 in assay [2] was > 50 µM (inactive).

In the case of `O=C1CCCCc2sc(Br)c([N+](=O)[O-])c2N1`, the inhibition in assay [1] was 66.9%. In assay [2], the 50% inhibitory concentration (IC50) was 7.06 µM.

For the origin of these results see PubChem BioAssay AID463136 (University of Pittsburgh Molecular Library Screening Center, 2010).
